Measured values from patent US8609870B2, “Treating various disorders using TrkB agonists” (Emory University, priority 2008, dated 2013).

Assays:
[1] = biological target: TrkB extra-cellular domain (ECD) (Homo sapiens, UniProt Q16620); test: [3H]-deoxygedunin ligand binding assay, TrkB ECD (Scatchard plot); details: increasing concentrations of radioligand
Experimental: (§1) Purified TrkB ECD or ICD proteins (10 μg/each) were incubated with different [^3H-deoxygedunin] in 1 ml binding buffer (0.05 M Na/K phosphate buffer (pH 7.1), 200 mM NaCl) (1 nM [^3H]deoxygedunin˜82300 cpm) at 4° C. for 10 minutes. After incubation, the reaction mixture was loaded on filter paper and washed with 3×5 ml Tris buffer (100 mM Tris, pH 7.1). The dried filter paper was put into a small vial and subjected to liquid scintillation counter analysis. The value of the dissociation constant and the number of sites were obtained from Scatchard plots by using the equation r/[L]free=n/Kd−r/Kd, where r is the ratio of the concentration of bound ligand to the total protein concentration and n is the number of binding sites.
To determine whether an identified active compound physically and directly binds to the TrkB receptor, in vitro binding assays can be conducted with purified TrkB extracellular domain (ECD) and intracellular domain (ICD) recombinant proteins. Purified TrkB ECD and ICD (10 μg of each) are incubated with different concentrations of ^3H-labeled identified active compound in 1 ml of binding buffer (0.05M Na/K phosphate buffer, pH 7.1, 200 mM NaCl) at 4° C. for 10 minutes. After the incubation, the reaction mixture is loaded on filter paper. The mixture is washed three times with Tris buffer (100 mM Tris, pH 7.1), and the dried filter paper is put into a small vial and subjected to liquid scintillation counter analysis. […] The value of the dissociate constant and the number of sites will then be obtained from Scatchard plots using the equation r/[L]free=n/Kd−r/Kd, where r is the ratio of the concentration of bound ligand to the total protein concentration and n is the number of binding sites.
To determine whether deoxygedunin binds the intra-cellular domain (ICD) or extra-cellular domain (ECD) of the TrkB receptor, ligand binding assays with [^3H]-deoxygedunin were performed. […] The coprecipitated HA-TrkB was also prominently tyrosine phosphorylated (see FIG. 14, 3rd panel).

[2] = biological target: TrkB intra-cellular domain (ICD) (Homo sapiens, UniProt Q16620); test: [3H]-deoxygedunin ligand binding assay, TrkB ICD; details: increasing concentrations of radioligand
Sequence of TrkB intra-cellular domain (ICD) (Q16620 455-822 limits assumed): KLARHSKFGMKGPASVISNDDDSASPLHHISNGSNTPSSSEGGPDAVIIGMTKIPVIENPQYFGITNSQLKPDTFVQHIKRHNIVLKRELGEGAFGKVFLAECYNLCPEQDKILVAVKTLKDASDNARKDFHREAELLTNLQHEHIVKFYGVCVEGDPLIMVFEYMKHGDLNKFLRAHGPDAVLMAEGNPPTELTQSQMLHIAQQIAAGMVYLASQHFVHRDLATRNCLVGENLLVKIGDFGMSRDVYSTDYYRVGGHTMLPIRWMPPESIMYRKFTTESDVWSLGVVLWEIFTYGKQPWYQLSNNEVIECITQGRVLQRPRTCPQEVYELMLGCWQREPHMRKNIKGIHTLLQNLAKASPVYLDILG
Experimental: as §1
To determine whether an identified active compound physically and directly binds to the TrkB receptor, in vitro binding assays can be conducted with purified TrkB extracellular domain (ECD) and intracellular domain (ICD) recombinant proteins. Purified TrkB ECD and ICD (10 μg of each) are incubated with different concentrations of ^3H-labeled identified active compound in 1 ml of binding buffer (0.05M Na/K phosphate buffer, pH 7.1, 200 mM NaCl) at 4° C. for 10 minutes. After the incubation, the reaction mixture is loaded on filter paper. […]

[3] = biological target: TrkA (Homo sapiens, UniProt P04629); test: [3H]-deoxygedunin ligand binding assay, TrkA
Sequence of TrkA (P04629 33-796, species assumed): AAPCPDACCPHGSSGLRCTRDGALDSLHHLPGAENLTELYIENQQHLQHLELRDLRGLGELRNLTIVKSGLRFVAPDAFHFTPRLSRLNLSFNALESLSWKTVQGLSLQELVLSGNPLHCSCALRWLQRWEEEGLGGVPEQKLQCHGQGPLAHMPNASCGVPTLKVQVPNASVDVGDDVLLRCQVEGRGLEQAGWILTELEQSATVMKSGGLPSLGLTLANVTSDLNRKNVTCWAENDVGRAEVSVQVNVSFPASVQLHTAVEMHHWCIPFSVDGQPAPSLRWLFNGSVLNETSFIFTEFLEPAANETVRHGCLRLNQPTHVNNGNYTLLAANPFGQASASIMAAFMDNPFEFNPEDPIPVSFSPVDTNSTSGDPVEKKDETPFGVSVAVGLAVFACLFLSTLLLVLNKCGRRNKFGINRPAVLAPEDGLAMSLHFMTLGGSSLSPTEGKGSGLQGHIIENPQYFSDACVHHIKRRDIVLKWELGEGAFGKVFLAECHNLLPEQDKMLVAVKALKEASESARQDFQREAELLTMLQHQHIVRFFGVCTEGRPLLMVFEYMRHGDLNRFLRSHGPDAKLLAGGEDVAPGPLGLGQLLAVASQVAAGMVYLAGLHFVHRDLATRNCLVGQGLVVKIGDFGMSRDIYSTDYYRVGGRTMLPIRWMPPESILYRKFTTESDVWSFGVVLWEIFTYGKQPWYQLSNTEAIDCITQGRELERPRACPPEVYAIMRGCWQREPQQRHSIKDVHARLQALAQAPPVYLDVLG

[4] = tested on: hippocampal neurons; test: Glutamate-triggered apoptosis in hippocampal neurons (MR(DEVD)2 / condensed nuclei); format: cell-based; details: 0.5 μM preincubated 30 min, then 50 μM glutamate 16 h
Experimental: To create and test reporter cell lines. In order to identify small molecules that mimic BDNF and activate TrkB, TrkB stably transfected murine cell lines are created. The T48 and T62 cell lines are created by transfecting basal forebrain SN56 cells, which express negligible TrkB, with a TrkB expression construct. To test expression of TrkB, the cells are treated with BDNF, which is predicted to result in strong phosphorylation of Trk-490 and Akt activation in comparison to the TrkA NTR stably expressing T17 cell line indicating expression of TrkB. To test resistance to apoptosis, the SN56 cells and the T48 cell line are either untreated or treated with BDNF, and then are subjected to an apoptotic assay. The apoptotic assay involves treating the cells with 0.75 μM Staurosporine for 9 hours, and 1 hour before completing the experiment, the cells are treated with 10 μM MR (DEVD)2. The cells then are fixed with 4% paraformaldehyde for 15 minutes, washed with phosphate buffered saline (PBS), and incubated with Hoechst 33342 for 10 minutes. Cover slides are washed with PBS, mounted, and then the cells are examined using a fluorescent microscope to see which cells turn red upon caspase cleavage.
To compare the apoptosis inhibitory activity of identified active compounds, the compounds are preincubated with SN56 and T48 cells, and subsequently are subjected to the fluorescent apoptotic assay as described above. To examine whether these identified active compounds promote neuronal survival, hippocampal neurons are prepared and the cultures are pretreated with the identified active compounds for 30 minutes, followed by treatment with 50 μM glutamate for 16 hours.
Using a cell-based screen as described above in Example 1 (based on the anti-apoptotic action of TrkB signaling) and the chemical library from the Spectrum Collection (described above), 66 positive hits were generated, four of which were gedunin derivatives. […] In this assay, neurons with both cleaved caspase (MR (DEVD)2 red cells) and condensed nuclei (DAPI staining) were counted as apoptotic cells. […]

[5] = tested on: hippocampal neurons; test: Oxygen-glucose deprivation (OGD) apoptosis in hippocampal neurons; format: cell-based; details: apoptotic ratio compared to BDNF and DMSO
[6] = biological target: T1, TrkB (Homo sapiens, UniProt Q16620); test: TrkB dimerization assay (GST pull-down, transfected HEK293 cells); format: cell-based
T1 construct: expressed in transfected cells; host or cells: HEK293
T1 sequence (Q16620 32-822, species assumed): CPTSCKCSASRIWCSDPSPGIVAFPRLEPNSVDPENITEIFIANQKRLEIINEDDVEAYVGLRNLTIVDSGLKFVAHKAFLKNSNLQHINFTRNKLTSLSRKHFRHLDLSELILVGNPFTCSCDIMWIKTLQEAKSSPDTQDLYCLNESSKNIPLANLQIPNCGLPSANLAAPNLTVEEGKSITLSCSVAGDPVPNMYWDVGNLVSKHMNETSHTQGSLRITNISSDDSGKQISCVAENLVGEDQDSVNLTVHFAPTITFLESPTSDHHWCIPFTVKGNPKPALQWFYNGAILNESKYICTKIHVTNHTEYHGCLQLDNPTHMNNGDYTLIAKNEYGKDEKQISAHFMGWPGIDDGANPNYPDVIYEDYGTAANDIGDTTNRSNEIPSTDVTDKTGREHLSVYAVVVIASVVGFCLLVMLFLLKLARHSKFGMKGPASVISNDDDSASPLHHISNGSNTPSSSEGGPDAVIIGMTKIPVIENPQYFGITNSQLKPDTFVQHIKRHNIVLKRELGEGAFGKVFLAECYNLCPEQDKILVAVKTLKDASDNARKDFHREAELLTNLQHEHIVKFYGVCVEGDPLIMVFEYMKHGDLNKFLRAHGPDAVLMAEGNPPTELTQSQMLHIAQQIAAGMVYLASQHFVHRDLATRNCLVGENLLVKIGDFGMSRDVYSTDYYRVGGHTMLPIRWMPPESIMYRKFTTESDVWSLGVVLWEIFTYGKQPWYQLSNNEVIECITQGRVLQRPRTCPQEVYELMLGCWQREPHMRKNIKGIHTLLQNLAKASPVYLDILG
T1 sequence (Q16620 32-822, species assumed): as above
Experimental: HEK293 cells transfected with GST-TrkB and HA-TrkA or TrkB were washed once in PBS, and lysed in 1 ml lysis buffer (50 mM Tris, pH 7.4, 150 mM NaCl, 1 mM EDTA, 0.5% Triton X-100, 1.5 mM Na3VO4, 50 mM NaF, 10 mM sodium pyrophosphate, 10 mM sodium β-glycerophosphate, 1 mM phenylmethylsulfonyl fluoride (PMSF), […], […] leupeptin, […] pepstatin A), and centrifuged for 10 minutes at 14,000×g at 4° C. The supernatant was then transferred to a fresh tube and transfected TrkB receptor was pulled down with glutathione beads. The coprecipitated proteins were resolved on SDS-PAGE. The samples were transferred to a nitrocellular membrane, and immunoblotting analysis was performed with a variety of antibodies.
BDNF is known to bind the TrkB receptor and provoke its dimerization (Barbacid, J. Neurobiol., 25:1386-1403, 1994; Klein et al, Cell, 66:395-403, 1991). To explore whether an identified active compound triggers TrkB receptor dimerization, HEK293 cells are cotransfected with GST-TrkB and HA-TrkB or HA-TrkA. The cells then are treated with BDNF or an identified active compound (0.5 μM) for 30 minutes. […]

Sequence of TrkB extra-cellular domain (ECD) (Q16620 32-430 limits assumed): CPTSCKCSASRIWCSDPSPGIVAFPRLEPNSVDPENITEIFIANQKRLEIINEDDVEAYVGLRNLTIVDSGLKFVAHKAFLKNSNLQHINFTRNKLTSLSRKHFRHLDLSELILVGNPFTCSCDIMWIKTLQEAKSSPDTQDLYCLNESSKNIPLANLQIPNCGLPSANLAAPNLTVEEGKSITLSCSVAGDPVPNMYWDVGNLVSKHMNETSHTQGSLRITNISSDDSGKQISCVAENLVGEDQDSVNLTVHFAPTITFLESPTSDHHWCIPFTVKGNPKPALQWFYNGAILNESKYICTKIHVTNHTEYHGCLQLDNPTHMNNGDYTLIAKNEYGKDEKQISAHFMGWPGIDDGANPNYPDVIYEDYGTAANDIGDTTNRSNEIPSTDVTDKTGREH

Row | Molecule | binding to TrkB ECD [1] | binding to TrkB ICD [2] | binding to TrkA [3] | protective effect (apoptosis inhibitory activity) [4] | protective effects on hippocampal neurons under OGD [5] | TrkB dimerization [6]
1 | 32-[^3H]3-deoxygedunin [[^3H]-deoxygedunin] | progressively bound | not the intra-cellular domain (ICD) | did not bind to TrkA | – | – | –
2 | CC(=O)O[C@@H]1CC2C(C)(C)[C@H](O)CC[C@]2(C)C2CC[C@@]3(C)[C@H](c4ccoc4)OC(=O)C4OC43[C@@]21C (stereo partly drawn) [alpha-dihydrogedunol (epoxy ring down), alphadihydrogedunol (epoxy ring down)] | – | – | – | protective effect | potent protective effects | notably promoted TrkB dimerization
